Laboratory results reported in patent US20250122191A1, “COMPOUNDS AS BCL-2 INHIBITORS” (Fochon Biosciences, Ltd, priority 2021, published 2025).

Tests used:
[1] = test system: RS4;11-BCL-2 D103E cells; assay: Cell proliferation assay (MTS), RS4;11-BCL-2 D103E engineered cells; format: cell-based; conditions: Homo sapiens, 72 h, read-out: RS4, 11 BCL2-D103E IC50
Outline: (§1)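 Proliferation IC50 in RS4;11 lines engineered with BCL-2 mutations, measured by MTS at 490 nm after 72 h (D103E, D103Y) or 120 h (G101V, F104L) compound treatment at 37 °C.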

[2] = Pharmacokinetics assay in rats; format: in vivo; conditions: rat, male Sprague-Dawley rats, po, 5 mg/kg, plasma; for Cmax: read-out: Cmax/C0
Procedure: The purpose of this study was to determine the pharmacokinetics of Examples in male Sprague-Dawley rats (Supplied by Beijing Vital River Laboratory Animal Technology Co., Ltd.) following a single intravenous bolus injection at 1 mg/kg and oral gavage (PO) administration at 5 mg/kg.
Animals in Group 1 were administered with Examples by single intravenous bolus injection at 1 mg/kg, which was formulated in 10% DMSO (Sigma, Batch #LPCOS181): 60% PEG400 (Sigma, Batch #MKCH6281): 30% water, pH 5-6 at 1 mg/mL as a solution. Animals in Group 2 were administered with Examples by single oral gavage (PO) administration at 5 mg/kg, which was formulated in 10% DMSO (Sigma, Batch #BCCD6641): 60% PEG400 (Sigma, Batch #MKCL4921): 30% water at 1 mg/mL as a solution. Blood samples were collected at 0.083, 0.25, 0.5, 1, 2, 4, 8, 12 and 24 hours post-dose. Concentrations of Examples in plasma were determined by LC/MS/MS (LC: Waters UPLC; MS: Triple Quad 6500 plus).

[3] = test system: Toledo cells; assay: Cell proliferation assay (MTS), Toledo cells; format: cell-based; conditions: Homo sapiens, 72 h
Outline: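 Toledo cells (RPMI-1640, 10% FBS) seeded at 30000 cells/well, rested 4 h, then exposed 72 h at 37 °C, 5% CO2 to compound at nine final concentrations, 1.5–10000 nM. Viability by MTS (2 h), absorbance at 490 nm. IC50 from the concentration-response.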

[4] = test system: RS4;11-BCL-2 G101V cells; assay: Cell proliferation assay (MTS), RS4;11-BCL-2 G101V engineered cells; format: cell-based; conditions: Homo sapiens, 120 h, read-out: RS4, 11 BCL2-G101V IC50
Outline: as §1

[5] = test system: RS4;11-BCL-2 F104L cells; assay: Cell proliferation assay (MTS), RS4;11-BCL-2 F104L engineered cells; format: cell-based; conditions: Homo sapiens, 120 h, read-out: RS4, 11 BCL2-F104L IC50
Outline: as §1

[6] = test system: RS4;11-BCL-2 D103Y cells; assay: Cell proliferation assay (MTS), RS4;11-BCL-2 D103Y engineered cells; format: cell-based; conditions: Homo sapiens, 72 h, read-out: RS4, 11 BCL2-D103Y IC50
Source text: MTS testing kit was purchased from Promega (Madison, WI, USA). The RPMI-1640, Fetal bovine serum and Penicillin-Streptomycin were purchased from BI (Biological Industries, Beit Haemek, Israel). Puromycin was purchased from Beyotime (shanghai, China). Dimethyl sulfoxide (DMSO) was purchased from Sigma (St. Louis., MO, USA). RS4;11-BCL-2 G101V (Cobioer Lot. #: CBD2021063013P4), RS4;11-BCL-2 D103E (Cobioer Lot. #: CBD2021063013P4), RS4;11-BCL-2 D103Y (Cobioer Lot. #: CBD2022012101P4) and RS4;11-BCL-2 F104L (Cobioer Lot. #: CBD2021063014P4) cells were cultured in RPMI1640 supplemented with 1 ug/mL puromycin, 100 U/mL Penicillin-Streptomycin and 10% FBS.
To investigate whether a compound is able to inhibit the activity of BCL-2 mutation in cells, a mechanism-based assay using engineered cell lines stably overexpressing BCL-2 mutation (RS4;11-BCL-2 G101V, RS4;11-BCL-2 D103E, RS4;11-BCL-2 D103Y, and RS4;11-BCL-2 F104L) was developed. In this assay, the inhibition of BCL-2 mutation was reflected by the inhibition of cell proliferation of engineered RS4;11 cells. Cells were plated into 96-well plates at optimized cell density (RS4;11-BCL-2 G101V: 5000 cells/well; RS4;11-BCL-2 D103E: 7500 cells/well; RS4;11-BCL-2 D103Y: 7500 cells/well; RS4;11-BCL-2 F104L: 5000 cells/well). Plates were incubated at 37° C., with 5% CO2 for 4 h (RS4;11-BCL-2 G101V, RS4;11-BCL-2 F104L) and 24 h (RS4;11-BCL-2 D103E, RS4;11-BCL-2 D103Y), respectively. Compounds were serially diluted and added to the plates with the final concentrations of 10000, 3333.3, 1111.1, 370.4, 123.5, 41.2, 13.7, 4.6 and 1.5 nM. Plates were incubated at 37° C., with 5% CO2 for 120 h (RS4; 11-BCL-2 G101V, RS4; 11-BCL-2 F104L) and 72 h (RS4;11-BCL-2 D103E, RS4;11-BCL-2 D103Y), respectively. 20 μl MTS was added into each well and the plates were incubated at 37° C., with 5% CO2 exactly for 2 h. The absorbance was measured by a microplate reader at 490 nm. IC50 values were calculated using GraphPad Prism 8.0 software.

| SMILES | IC50 [6] | IC50 [1] | AUC(0-t) [2] | half-life [2] | Cmax [2] | IC50 [3] | IC50 [4] | IC50 [5] |
| --- | --- | --- | --- | --- | --- | --- | --- | --- |
| COc1cc(CN2CCN(C3CC4(CCN(c5ccc(C(=O)NS(=O)(=O)c6cnc(NC[C@H]7CC[C@](C)(O)CC7)c([N+](=O)[O-])c6)c(Oc6cc7c(F)c[nH]c7nc6OC)c5)CC4)C3)[C@H](c3ccccc3C(C)C)C2)ccn1 [Example 242, 2-((3-fluoro-6-methoxy-1H-pyrrolo[2,3-b]pyridin-5-yl)oxy)-N-((6-((((1r,4r)-4-hydroxy-4-methylcyclohexyl)methyl)amino)-5-nitropyridin-3-yl)sulfonyl)-4-(2-((R)-2-(2-isopropylphenyl)-4-((2-methoxypyridin-4-yl)methyl)piperazin-1-yl)-7-azaspiro[3.5]nonan-7-yl)benzamide] | – | 1 nM | 2760 ng·h/mL | 7.02 h | 272 ng/mL | 1 nM | 1 nM | 1 nM |
| COc1nc2[nH]cc(F)c2cc1Oc1cc(N2CCC3(CC2)CC(N2CCN(Cc4ccc(OC)c5oc(C)cc45)C[C@H]2c2ccccc2C(C)C)C3)ccc1C(=O)NS(=O)(=O)c1cnc(NC[C@H]2CC[C@](C)(O)CC2)c([N+](=O)[O-])c1 [Example 13, 2-((3-fluoro-6-methoxy-1H-pyrrolo[2,3-b]pyridin-5-yl)oxy)-N-((6-((((1r,4r)-4-hydroxy-4-methylcyclohexyl)methyl)amino)-5-nitropyridin-3-yl)sulfonyl)-4-(2-((R)-2-(2-isopropylphenyl)-4-((7-methoxy-2-methylbenzofuran-4-yl)methyl)piperazin-1-yl)-7-azaspiro[3.5]nonan-7-yl)benzamide] | – | 1 nM | 1890 ng·h/mL | 11.3 h | 198 ng/mL | 1 nM | 1 nM | 1 nM |
| COc1nc2[nH]cc(F)c2cc1Oc1cc(N2CCC3(CC2)CC(N2CCN(Cc4ccc(C5CC5)c(OC)n4)C[C@H]2c2ccccc2C(C)C)C3)ccc1C(=O)NS(=O)(=O)c1cnc(NC[C@H]2CC[C@](C)(O)CC2)c([N+](=O)[O-])c1 [Example 289, 4-(2-((R)-4-((5-cyclopropyl-6-methoxypyridin-2-yl)methyl)-2-(2-isopropylphenyl)piperazin-1-yl)-7-azaspiro[3.5]nonan-7-yl)-2-((3-fluoro-6-methoxy-1H-pyrrolo[2,3-b]pyridin-5-yl)oxy)-N-((6-((((1r,4r)-4-hydroxy-4-methylcyclohexyl)methyl)amino)-5-nitropyridin-3-yl)sulfonyl)benzamide] | – | 1 nM | 3450 ng·h/mL | 8.1 h | 357 ng/mL | 1 nM | 2 nM | 1 nM |
| COc1nc2[nH]cc(F)c2cc1Oc1cc(N2CCC3(CC2)CC(N2CCN(Cc4ccnc5c4NCCO5)C[C@H]2c2ccccc2C(C)C)C3)ccc1C(=O)NS(=O)(=O)c1cnc(NC[C@H]2CC[C@](C)(O)CC2)c([N+](=O)[O-])c1 [Example 192, 4-(2-((R)-4-((2,3-dihydro-1H-pyrido[2,3-b][1,4]oxazin-8-yl)methyl)-2-(2-isopropylphenyl)piperazin-1-yl)-7-azaspiro[3.5]nonan-7-yl)-2-((3-fluoro-6-methoxy-1H-pyrrolo[2,3-b]pyridin-5-yl)oxy)-N-((6-((((1r,4r)-4-hydroxy-4-methylcyclohexyl)methyl)amino)-5-nitropyridin-3-yl)sulfonyl)benzamide] | 1 nM | 1 nM | – | – | – | – | – | – |
| COc1ccc(CN2CCN(C3CC4(CCN(c5ccc(C(=O)NS(=O)(=O)c6cnc(NC[C@H]7CC[C@](C)(O)CC7)c([N+](=O)[O-])c6)c(Oc6cc7c(F)c[nH]c7nc6OC)c5)CC4)C3)[C@H](c3ccccc3C(C)C)C2)cc1 [Example 1, 2-((3 fluoro-6-methoxy-1H pyrrolo[2,3-b]pyridin-5 yl)oxy)-N-((6-((((1r, 4r)-4-hydroxy-4-methylcyclohexyl)methyl)amino)-5-nitropyridin-3-yl)sulfonyl)-4-(2-((R)-2-(2-isopropylphenyl)-4-(4-methoxybenzyl)piperazin-1-yl)-7-azaspiro[3.5]nonan-7-yl)benzamide] | – | 2 nM | 3030 ng·h/mL | 9.02 h | 227 ng/mL | 1 nM | 1 nM | 1 nM |

Second part, led by results:

| IC50 [6] | SMILES | IC50 [1] | AUC(0-t) [2] | half-life [2] | Cmax [2] | IC50 [3] | IC50 [4] | IC50 [5] |
| --- | --- | --- | --- | --- | --- | --- | --- | --- |
| 1 nM | COc1cc(CN2CCN(C3CC4(CCN(c5ccc(C(=O)NS(=O)(=O)c6cnc(NC[C@H]7CC[C@](C)(O)CC7)c([N+](=O)[O-])c6)c(Oc6cc7c(F)c[nH]c7nc6OC)c5)CC4)C3)[C@H](c3ccccc3C(C)C)C2)cc(O)n1 [Example 69, 2-((3-fluoro-6-methoxy-1H-pyrrolo[2,3-b]pyridin-5-yl)oxy)-N-((6-((((1r,4r)-4-hydroxy-4-methylcyclohexyl)methyl)amino)-5-nitropyridin-3-yl)sulfonyl)-4-(2-((R)-4-((2-hydroxy-6-methoxypyridin-4-yl)methyl)-2-(2-isopropylphenyl)piperazin-1-yl)-7-azaspiro[3.5]nonan-7-yl)benzamide] | – | – | – | – | – | 1 nM | – |
| 8 nM | COc1nc2[nH]cc(F)c2cc1Oc1cc(N2CCC3(CC2)CC(N2CCN(Cc4ccnc5c4CCO5)C[C@H]2c2ccccc2C(C)C)C3)ccc1C(=O)NS(=O)(=O)c1cnc(NC[C@H]2CC[C@](C)(O)CC2)c([N+](=O)[O-])c1 [Example 190, 4-(2-((R)-4-((2,3-dihydrofuro[2,3-b]pyridin-4-yl)methyl)-2-(2-isopropylphenyl)piperazin-1-yl)-7-azaspiro[3.5]nonan-7-yl)-2-((3-fluoro-6-methoxy-1H-pyrrolo[2,3-b]pyridin-5-yl)oxy)-N-((6-((((1r,4r)-4-hydroxy-4-methylcyclohexyl)methyl)amino)-5-nitropyridin-3-yl)sulfonyl)benzamide] | 1 nM | – | – | – | – | – | – |
| 8 nM | COc1nc2[nH]cc(F)c2cc1Oc1cc(N2CCC3(CC2)CC(N2CCN(Cc4ccnc5c4NCC(C)O5)C[C@H]2c2ccccc2C(C)C)C3)ccc1C(=O)NS(=O)(=O)c1cnc(NC[C@H]2CC[C@](C)(O)CC2)c([N+](=O)[O-])c1 (stereo partly drawn) [Example 195, 2-((3-fluoro-6-methoxy-1H-pyrrolo[2,3-b]pyridin-5-yl)oxy)-N-((6-((((1r,4r)-4-hydroxy-4-methylcyclohexyl)methyl)amino)-5-nitropyridin-3-yl)sulfonyl)-4-(2-((2R)-2-(2-isopropylphenyl)-4-((3-methyl-2,3-dihydro-1H-pyrido[2,3-b][1,4]oxazin-8-yl)methyl)piperazin-1-yl)-7-azaspiro[3.5]nonan-7-yl)benzamide] | – | – | – | – | – | – | – |
